Reference: ChEMBL document CHEMBL3734665, “Design, synthesis and evaluation of antiestrogen and histone deacetylase inhibitor molecular hybrids” (Bioorg Med Chem, 2015)
pIC50: −log10 of the molar value.

Legend:
MCF7 = assay: Antiproliferative activity against human MCF7 cells treated for 48 hrs followed by refreshed every 96 hrs measured on day 10 by Lowry assay; assay type: functional, cell-based
Estrogen receptor [1] = target: T1, Estrogen receptor (Homo sapiens, UniProt P03372); assay: (§1) Antagonist activity at luciferase-fused ERalpha in human HEK293 cells expressing eYFP assessed as reduction of E2-induced estrogenic activity after 2 hrs by BRET assay; assay type: cell-based
T1 sequence (P03372 whole entry): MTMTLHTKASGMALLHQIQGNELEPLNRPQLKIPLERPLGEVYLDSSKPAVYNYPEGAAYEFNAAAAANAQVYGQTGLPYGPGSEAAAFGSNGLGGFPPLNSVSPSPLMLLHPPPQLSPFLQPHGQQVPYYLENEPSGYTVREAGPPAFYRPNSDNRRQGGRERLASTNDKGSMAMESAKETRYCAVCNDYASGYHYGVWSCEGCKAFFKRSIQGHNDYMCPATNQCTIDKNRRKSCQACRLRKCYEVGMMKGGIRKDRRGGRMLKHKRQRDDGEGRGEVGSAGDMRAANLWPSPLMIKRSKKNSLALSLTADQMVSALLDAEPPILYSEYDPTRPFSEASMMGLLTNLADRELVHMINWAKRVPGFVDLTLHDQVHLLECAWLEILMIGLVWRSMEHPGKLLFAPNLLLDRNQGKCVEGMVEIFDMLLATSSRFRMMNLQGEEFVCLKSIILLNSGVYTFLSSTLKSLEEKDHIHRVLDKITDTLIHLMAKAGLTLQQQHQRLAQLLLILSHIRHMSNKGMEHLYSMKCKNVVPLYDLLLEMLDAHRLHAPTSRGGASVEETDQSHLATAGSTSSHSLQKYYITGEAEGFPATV

[2] = target: T2, Estrogen receptor (Homo sapiens) (UniProt P03372); assay: as §1; assay type: cell-based
T2 sequence (whole entry): T1 sequence (P03372 whole entry)

Histone deacetylase 3 = Histone deacetylase 3 (Homo sapiens, UniProt O15379); assay: Inhibition of human recombinant HDAC3 using Boc-Lys(Ac)-AMC as substrate after 30 mins by fluorescence assay
[3] = target: T3, Protein deacetylase HDAC6 (Homo sapiens, UniProt Q9UBN7); assay: Inhibition of human recombinant HDAC6 using Boc-Lys(Ac)-AMC as substrate after 30 mins by fluorescence assay
T3 sequence (Q9UBN7 whole entry): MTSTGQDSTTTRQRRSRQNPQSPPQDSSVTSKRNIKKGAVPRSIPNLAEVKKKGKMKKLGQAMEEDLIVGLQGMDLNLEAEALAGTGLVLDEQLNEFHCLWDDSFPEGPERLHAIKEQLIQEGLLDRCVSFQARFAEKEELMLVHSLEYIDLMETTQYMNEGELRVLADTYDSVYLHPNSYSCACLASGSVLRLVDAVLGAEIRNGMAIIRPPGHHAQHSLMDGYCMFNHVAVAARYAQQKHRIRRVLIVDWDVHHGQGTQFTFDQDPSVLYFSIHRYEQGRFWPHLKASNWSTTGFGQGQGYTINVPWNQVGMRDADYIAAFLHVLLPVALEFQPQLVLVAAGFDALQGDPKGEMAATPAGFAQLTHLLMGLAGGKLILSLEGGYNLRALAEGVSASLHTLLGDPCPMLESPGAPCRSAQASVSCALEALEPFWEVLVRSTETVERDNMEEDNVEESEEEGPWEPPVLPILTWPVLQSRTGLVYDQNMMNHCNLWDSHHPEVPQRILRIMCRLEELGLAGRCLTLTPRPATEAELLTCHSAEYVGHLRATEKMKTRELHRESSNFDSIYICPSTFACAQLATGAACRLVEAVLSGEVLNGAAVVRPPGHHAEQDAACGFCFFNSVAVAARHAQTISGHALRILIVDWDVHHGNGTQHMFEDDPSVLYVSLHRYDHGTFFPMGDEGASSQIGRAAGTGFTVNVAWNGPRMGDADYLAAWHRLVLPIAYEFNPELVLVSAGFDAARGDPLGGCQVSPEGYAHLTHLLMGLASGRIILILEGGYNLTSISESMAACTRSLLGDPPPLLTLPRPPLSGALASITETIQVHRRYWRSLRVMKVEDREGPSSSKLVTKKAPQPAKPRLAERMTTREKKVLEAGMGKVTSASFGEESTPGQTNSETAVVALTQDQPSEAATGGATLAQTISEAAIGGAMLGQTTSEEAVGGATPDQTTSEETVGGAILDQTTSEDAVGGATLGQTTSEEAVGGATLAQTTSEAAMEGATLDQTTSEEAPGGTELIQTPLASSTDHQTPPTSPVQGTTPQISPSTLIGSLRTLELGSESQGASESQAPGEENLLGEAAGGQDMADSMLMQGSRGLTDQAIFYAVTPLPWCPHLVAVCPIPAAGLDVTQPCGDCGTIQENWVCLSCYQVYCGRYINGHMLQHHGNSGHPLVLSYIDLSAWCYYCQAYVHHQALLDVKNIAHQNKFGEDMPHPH

Estrogen receptor [4] = target: T1, Estrogen receptor; assay: Antagonist activity at ERalpha in human T47D-KBLuc cells assessed as inhibition of E2-induced transcriptional activity by luciferase reporter gene assay; assay type: cell-based
MDA-MB-231 = assay: Antiproliferative activity against human MDA-MB-231 cells treated for 48 hrs followed by refreshed every 96 hrs measured on day 10 by Lowry assay; assay type: functional, cell-based

Sequence of Histone deacetylase 3 (O15379 whole entry): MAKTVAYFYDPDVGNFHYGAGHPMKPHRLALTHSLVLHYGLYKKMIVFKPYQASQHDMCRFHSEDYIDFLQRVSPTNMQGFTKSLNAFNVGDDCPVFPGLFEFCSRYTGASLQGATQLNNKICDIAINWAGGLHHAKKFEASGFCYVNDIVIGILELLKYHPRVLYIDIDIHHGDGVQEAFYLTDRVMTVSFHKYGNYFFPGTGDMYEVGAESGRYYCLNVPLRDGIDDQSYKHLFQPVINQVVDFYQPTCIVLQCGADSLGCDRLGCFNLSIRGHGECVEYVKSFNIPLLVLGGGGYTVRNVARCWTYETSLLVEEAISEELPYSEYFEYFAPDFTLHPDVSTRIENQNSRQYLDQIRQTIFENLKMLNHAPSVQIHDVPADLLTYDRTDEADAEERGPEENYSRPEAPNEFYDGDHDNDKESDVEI

SMILES	pIC50 (MCF7)	pIC50 (Estrogen receptor [1])	inhibition [2]	pIC50 (Histone deacetylase 3)	pIC50 [3]	pIC50 (Estrogen receptor [4])	pIC50 (MDA-MB-231)
CC/C(=C(\c1ccc(O)cc1)c1ccc(OCCN(C)C)cc1)c1ccccc1 [AFIMOXIFENE]	6.82						
CCCCN(C)C(=O)CCCCCCCCCC[C@@H]1Cc2cc(O)ccc2[C@H]2CC[C@]3(C)[C@@H](O)CC[C@H]3[C@H]12	6.03						
CCCCN(O)C(=O)CCCCCCCCCC[C@@H]1Cc2cc(O)ccc2[C@H]2CC[C@]3(C)[C@@H](O)CC[C@H]3[C@H]12	5.04	5.59	Dose-dependent effect	< 5.30	< 4.30	5.68	
CCCCN(O)C(=O)c1cccc(NC(=O)CCCCCS[C@@H]2Cc3cc(O)ccc3[C@H]3CC[C@]4(C)[C@@H](O)CC[C@H]4[C@@H]32)c1	6.47	7.30	Dose-dependent effect	5.81	4.36	6.74	5.30

More lines, in order of rising pIC50 (MCF7), values ahead:

pIC50 (MCF7)	pIC50 (Estrogen receptor [1])	inhibition [2]	pIC50 (Histone deacetylase 3)	pIC50 [3]	pIC50 (Estrogen receptor [4])	pIC50 (MDA-MB-231)	SMILES
5.53	6.29	Dose-dependent effect	6.02	5.94	5.97		C[C@]12CC[C@@H]3c4ccc(O)cc4C[C@@H](CCCCCCCCCCC(=O)NO)[C@H]3[C@@H]1CC[C@@H]2O
5.72	6.68	Dose-dependent effect	5.50	< 4.30	6.14		C[C@]12CC[C@@H]3c4ccc(O)cc4C[C@@H](CCCCCCCCCCC(=O)Nc4ccccc4N)[C@H]3[C@@H]1CC[C@@H]2O
6.46							Nc1ccccc1NC(=O)c1ccc(CNC(=O)OCc2cccnc2)cc1 [ENTINOSTAT]
